From ChEMBL document CHEMBL4311999, “3-Hydrazinoisatin-based benzenesulfonamides as novel carbonic anhydrase inhibitors endowed with anticancer activity: Synthesis, in vitro biological evaluation and in silico insights” (Eur J Med Chem, 2019)

What was measured:
[1] = system: MDA-MB-231; assay: Growth inhibition of human MDA-MB-231 cells at 10 uM incubated for 48 hrs by sulforhodamine B assay relative to control; assay type: functional; conditions: MDA-MB-231, 48 h, read-out: GI
[2] = system: SF-539; assay: Growth inhibition of human SF539 cells at 10 uM incubated for 48 hrs by sulforhodamine B assay relative to control; assay type: functional; conditions: SF-539, 48 h, read-out: GI
[3] = system: SNB-75; assay: Growth inhibition of human SNB75 cells at 10 uM incubated for 48 hrs by sulforhodamine B assay relative to control; assay type: functional; conditions: SNB-75, 48 h, read-out: GI
[4] = system: UO-31; assay: Growth inhibition of human UO31 cells at 10 uM incubated for 48 hrs by sulforhodamine B assay relative to control; assay type: functional; conditions: UO-31, 48 h, read-out: GI
[5] = system: ACHN; assay: Growth inhibition of human ACHN cells at 10 uM incubated for 48 hrs by sulforhodamine B assay relative to control; assay type: functional; conditions: read-out: GI
[6] = system: CAKI-1; assay: Growth inhibition of human Caki1 cells at 10 uM incubated for 48 hrs by sulforhodamine B assay relative to control; assay type: functional; conditions: CAKI-1, 48 h, read-out: GI
[7] = system: SW-620; assay: Growth inhibition of human SW620 cells at 10 uM incubated for 48 hrs by sulforhodamine B assay relative to control; assay type: functional; conditions: SW-620, 48 h, read-out: GI
[8] = system: HCT-116; assay: Growth inhibition of human HCT116 cells at 10 uM incubated for 48 hrs by sulforhodamine B assay relative to control; assay type: functional; conditions: HCT-116, 48 h, read-out: GI
[9] = system: SN12C; assay: Growth inhibition of human SN12C cells at 10 uM incubated for 48 hrs by sulforhodamine B assay relative to control; assay type: functional; conditions: read-out: GI
[10] = target: Carbonic anhydrase 9 (Homo sapiens, UniProt Q16790); assay: Inhibition of recombinant human carbonic anhydrase 9 preincubated for 15 mins by phenol red dye based stopped flow CO2 hydration assay
[11] = system: U-251; assay: Growth inhibition of human U251 cells at 10 uM incubated for 48 hrs by sulforhodamine B assay relative to control; assay type: functional; conditions: U-251, 48 h, read-out: GI
[12] = system: M14; assay: Growth inhibition of human M14 cells at 10 uM incubated for 48 hrs by sulforhodamine B assay relative to control; assay type: functional; conditions: M14, 48 h, read-out: GI
[13] = system: IGROV-1; assay: Growth inhibition of human IGROV1 cells at 10 uM incubated for 48 hrs by sulforhodamine B assay relative to control; assay type: functional; conditions: IGROV-1, 48 h, read-out: GI
[14] = system: A549; assay: Growth inhibition of human A549/ATCC cells at 10 uM incubated for 48 hrs by sulforhodamine B assay relative to control; assay type: functional; conditions: A549, 48 h, read-out: GI
[15] = target: Carbonic anhydrase 1 (Homo sapiens, UniProt P00915); assay: Inhibition of recombinant human carbonic anhydrase 1 preincubated for 15 mins by phenol red dye based stopped flow CO2 hydration assay
Chain of Carbonic anhydrase 1 (P00915 whole entry): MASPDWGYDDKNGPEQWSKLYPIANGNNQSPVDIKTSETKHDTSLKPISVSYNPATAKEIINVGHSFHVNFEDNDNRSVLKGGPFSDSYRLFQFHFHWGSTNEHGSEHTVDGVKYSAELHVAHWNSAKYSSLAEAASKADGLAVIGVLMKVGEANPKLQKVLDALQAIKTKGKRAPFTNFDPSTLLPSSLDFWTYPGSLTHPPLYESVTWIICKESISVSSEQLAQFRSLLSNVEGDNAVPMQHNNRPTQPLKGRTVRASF

[16] = system: T47D; assay: Growth inhibition of human T47D cells at 10 uM incubated for 48 hrs by sulforhodamine B assay relative to control; assay type: functional; conditions: read-out: GI
[17] = system: OVCAR-8; assay: Growth inhibition of human OVCAR8 cells at 10 uM incubated for 48 hrs by sulforhodamine B assay relative to control; assay type: functional; conditions: OVCAR-8, 48 h, read-out: GI
[18] = system: NCI-H322M; assay: Growth inhibition of human NCI-H322M cells at 10 uM incubated for 48 hrs by sulforhodamine B assay relative to control; assay type: functional; conditions: read-out: GI
[19] = system: SK-OV-3; assay: Growth inhibition of human SKOV3 cells at 10 uM incubated for 48 hrs by sulforhodamine B assay relative to control; assay type: functional; conditions: SK-OV-3, 48 h, read-out: GI
[20] = system: NCI-H460; assay: Growth inhibition of human NCI-H460 cells at 10 uM incubated for 48 hrs by sulforhodamine B assay relative to control; assay type: functional; conditions: NCI-H460, 48 h, read-out: GI
[21] = system: OVCAR-3; assay: Growth inhibition of human OVCAR3 cells at 10 uM incubated for 48 hrs by sulforhodamine B assay relative to control; assay type: functional; conditions: OVCAR-3, 48 h, read-out: GI
[22] = target: Carbonic anhydrase 12 (Homo sapiens, UniProt O43570); assay: Inhibition of recombinant human carbonic anhydrase 12 preincubated for 15 mins by phenol red dye based stopped flow CO2 hydration assay
Chain of Carbonic anhydrase 12 (O43570 whole entry): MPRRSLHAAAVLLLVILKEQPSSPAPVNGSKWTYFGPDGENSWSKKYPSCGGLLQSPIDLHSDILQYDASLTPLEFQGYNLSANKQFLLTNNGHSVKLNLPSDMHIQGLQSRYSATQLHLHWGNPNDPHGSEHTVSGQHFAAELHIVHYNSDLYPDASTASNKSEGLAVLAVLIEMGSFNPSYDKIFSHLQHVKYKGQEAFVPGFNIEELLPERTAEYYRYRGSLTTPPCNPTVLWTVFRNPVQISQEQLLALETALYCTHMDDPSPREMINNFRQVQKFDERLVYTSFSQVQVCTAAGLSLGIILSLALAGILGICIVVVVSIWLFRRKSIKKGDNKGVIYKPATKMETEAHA

[23] = system: NCI-H522; assay: Growth inhibition of human NCI-H522 cells at 10 uM incubated for 48 hrs by sulforhodamine B assay relative to control; assay type: functional; conditions: NCI-H522, 48 h, read-out: GI
[24] = system: DU-145; assay: Growth inhibition of human DU145 cells at 10 uM incubated for 48 hrs by sulforhodamine B assay relative to control; assay type: functional; conditions: DU-145, 48 h, read-out: GI
[25] = target: Carbonic anhydrase 2 (Homo sapiens, UniProt P00918); assay: Inhibition of recombinant human carbonic anhydrase 2 preincubated for 15 mins by phenol red dye based stopped flow CO2 hydration assay
[26] = system: HOP-62; assay: Growth inhibition of human HOP62 cells at 10 uM incubated for 48 hrs by sulforhodamine B assay relative to control; assay type: functional; conditions: HOP-62, 48 h, read-out: GI
[27] = system: RPMI-8226; assay: Growth inhibition of human RPMI8226 cells at 10 uM incubated for 48 hrs by sulforhodamine B assay relative to control; assay type: functional; conditions: RPMI-8226, 48 h, read-out: GI
[28] = target: CDK9/cyclin T1 (Homo sapiens, UniProt P50750); assay: Inhibition of human full length N-terminal GST-HIS6 fused CDK9 (M1 to F372 residues)/N-terminal HIS6-fused Cyclin-T1 (M1 to K726 residues) co-expressed in Sf9 cells using (YSPTSPS)2KK as substrate in presence of [gamma33P]ATP
Chain of CDK9/cyclin T1 (O60563 whole entry, the tested form may be a part): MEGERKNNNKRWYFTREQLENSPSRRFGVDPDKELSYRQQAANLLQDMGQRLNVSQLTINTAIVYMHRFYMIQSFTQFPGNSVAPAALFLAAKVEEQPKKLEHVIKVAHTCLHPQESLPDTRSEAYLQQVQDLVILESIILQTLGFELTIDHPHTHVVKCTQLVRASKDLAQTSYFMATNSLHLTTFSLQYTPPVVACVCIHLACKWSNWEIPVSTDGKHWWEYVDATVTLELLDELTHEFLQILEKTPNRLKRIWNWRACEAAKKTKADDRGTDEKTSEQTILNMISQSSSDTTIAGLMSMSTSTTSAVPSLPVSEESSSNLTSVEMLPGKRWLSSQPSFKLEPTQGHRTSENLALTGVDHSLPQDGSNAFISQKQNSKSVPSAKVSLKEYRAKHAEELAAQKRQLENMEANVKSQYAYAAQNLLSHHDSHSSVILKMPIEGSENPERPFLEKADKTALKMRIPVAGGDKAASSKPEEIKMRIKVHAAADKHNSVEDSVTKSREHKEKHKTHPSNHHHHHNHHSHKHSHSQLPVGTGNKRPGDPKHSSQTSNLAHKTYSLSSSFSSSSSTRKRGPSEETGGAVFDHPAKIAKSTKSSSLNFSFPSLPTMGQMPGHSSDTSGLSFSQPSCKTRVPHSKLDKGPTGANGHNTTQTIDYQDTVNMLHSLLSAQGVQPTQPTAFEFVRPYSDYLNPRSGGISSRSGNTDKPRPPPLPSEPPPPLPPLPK
Chain of CDK9/cyclin T1 (P50750 whole entry, the tested form may be a part): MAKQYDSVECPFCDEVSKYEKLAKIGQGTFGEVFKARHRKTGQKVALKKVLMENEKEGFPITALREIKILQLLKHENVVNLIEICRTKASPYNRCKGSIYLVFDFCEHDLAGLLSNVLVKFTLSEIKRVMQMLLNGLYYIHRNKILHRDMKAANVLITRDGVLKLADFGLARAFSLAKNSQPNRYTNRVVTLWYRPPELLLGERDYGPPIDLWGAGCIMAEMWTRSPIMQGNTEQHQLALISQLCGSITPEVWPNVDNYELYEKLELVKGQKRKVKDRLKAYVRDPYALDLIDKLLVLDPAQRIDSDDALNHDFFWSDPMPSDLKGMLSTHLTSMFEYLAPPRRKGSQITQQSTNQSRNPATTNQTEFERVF

[29] = system: K562; assay: Growth inhibition of human K562 cells at 10 uM incubated for 48 hrs by sulforhodamine B assay relative to control; assay type: functional; conditions: K562, 48 h, read-out: GI
[30] = system: NCI-H226; assay: Growth inhibition of human NCI-H226 cells at 10 uM incubated for 48 hrs by sulforhodamine B assay relative to control; assay type: functional; conditions: NCI-H226, 48 h, read-out: GI
[31] = target: Cyclin-dependent kinase 2/cyclin E1 (Homo sapiens, UniProt P24941); assay: Inhibition of human recombinant CDK2/Cyclin E expressed in baculovirus infected Sf9 cells using histone H1 substrate in presence of [gamma33P]ATP
[32] = system: MCF7; assay: Growth inhibition of human MCF7 cells at 10 uM incubated for 48 hrs by sulforhodamine B assay relative to control; assay type: functional; conditions: MCF7, 48 h, read-out: GI
[33] = system: Malme-3M; assay: Growth inhibition of human MALME-3M cells at 10 uM incubated for 48 hrs by sulforhodamine B assay relative to control; assay type: functional; conditions: read-out: GI
[34] = system: SK-MEL-5; assay: Growth inhibition of human SK-MEL-5 cells at 10 uM incubated for 48 hrs by sulforhodamine B assay relative to control; assay type: functional; conditions: SK-MEL-5, 48 h, read-out: GI
[35] = system: OVCAR-4; assay: Growth inhibition of human OVCAR4 cells at 10 uM incubated for 48 hrs by sulforhodamine B assay relative to control; assay type: functional; conditions: OVCAR-4, 48 h, read-out: GI

## NS(=O)(=O)c1ccc(N/N=C2\C(=O)N(Cc3ccccc3)c3ccc(Cl)cc32)cc1
[1]
  inhibition of growth at 10 µM: 24%
[2]
  inhibition of growth at 10 µM: 39%
[3]
  inhibition of growth at 10 µM: 22%
[4]
  inhibition of growth at 10 µM: 19%
[5]
  inhibition of growth at 10 µM: 35%
[6]
  inhibition of growth at 10 µM: 36%
[7]
  inhibition of growth at 10 µM: 20%
[8]
  inhibition of growth at 10 µM: 31%
[9]
  inhibition of growth at 10 µM: 13%
[10]
  Ki: 19.6 nM
[11]
  inhibition of growth at 10 µM: 18%
[12]
  inhibition of growth at 10 µM: 12%
[13]
  inhibition of growth at 10 µM: 16%
[14]
  inhibition of growth at 10 µM: 17%
[15]
  Ki: 4830 nM
[16]
  inhibition of growth at 10 µM: 21%
[17]
  inhibition of growth at 10 µM: 35%
[18]
  inhibition of growth at 10 µM: 16%
[19]
  inhibition of growth at 10 µM: 26%
[20]
  inhibition of growth at 10 µM: 35%
[21]
  inhibition of growth at 10 µM: 11%
[22]
  Ki: 33.7 nM
[23]
  inhibition of growth at 10 µM: 31%
[24]
  inhibition of growth at 10 µM: 13%
[25]
  Ki: 52.7 nM
[26]
  inhibition of growth at 10 µM: 36%
[27]
  inhibition of growth at 10 µM: 10%
[28]
  IC50: > 10000 nM
[29]
  inhibition of growth at 10 µM: 18%
[30]
  inhibition of growth at 10 µM: 66%
[31]
  IC50: > 10000 nM
[32]
  inhibition of growth at 10 µM: 25%
[33]
  inhibition of growth at 10 µM: 30%
[34]
  inhibition of growth at 10 µM: 20%
[35]
  inhibition of growth at 10 µM: 71%

## CCOC(=O)CN1C(=O)/C(=N\Nc2ccc(S(N)(=O)=O)cc2)c2cc(Br)ccc21
[1]
  inhibition of growth at 10 µM: 33%
[2]
  inhibition of growth at 10 µM: 84%
[3]
  inhibition of growth at 10 µM: 22%
[4]
  inhibition of growth at 10 µM: 13%
[5]
  inhibition of growth at 10 µM: 15%
[6]
  inhibition of growth at 10 µM: 14%
[7]
  inhibition of growth at 10 µM: 37%
[8]
  inhibition of growth at 10 µM: 86%
[9]
  inhibition of growth at 10 µM: 12%
[10]
  Ki: 65.4 nM
[11]
  inhibition of growth at 10 µM: 14%
[12]
  inhibition of growth at 10 µM: 12%
[13]
  inhibition of growth at 10 µM: 27%
[14]
  inhibition of growth at 10 µM: 69%
[15]
  Ki: > 10000 nM
[16]
  inhibition of growth at 10 µM: 22%
[17]
  inhibition of growth at 10 µM: 44%
[18]
  inhibition of growth at 10 µM: 23%
[19]
  inhibition of growth at 10 µM: 18%
[20]
  inhibition of growth at 10 µM: 56%
[21]
  inhibition of growth at 10 µM: 15%
[22]
  Ki: 49.5 nM
[23]
  inhibition of growth at 10 µM: 29%
[24]
  inhibition of growth at 10 µM: 21%
[25]
  Ki: 630 nM
[26]
  inhibition of growth at 10 µM: 35%
[27]
  inhibition of growth at 10 µM: 21%
[28]
  IC50: > 10000 nM
[29]
  inhibition of growth at 10 µM: 35%
[30]
  inhibition of growth at 10 µM: 14%
[31]
  IC50: > 10000 nM
[32]
  inhibition of growth at 10 µM: 16%
[33]
  inhibition of growth at 10 µM: 21%
[34]
  inhibition of growth at 10 µM: 12%
[35]
  inhibition of growth at 10 µM: 69%
